Reference: patent publication US20060069132A1, “Azolecarboxamide herbicides” (priority 2004, published 2006)

Tests used:
[1] = tested on: large crabgrass; experiment: Test B pre-/postemergence herbicide test; assay type: in vivo, Digitaria sanguinalis; details: for Crabgrass, Large plant response rating: postemergence, scale 0 (no effect) to 100 (complete control)
How it was run: (§1)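 Greenhouse pot assay with simultaneous preemergence (treated seed) and postemergence (2–18 cm seedlings) applications of surfactant-containing, non-phytotoxic solvent formulations. Response scored visually 13–15 days later on a 0–100 scale, 100 meaning complete control.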

[2] = tested on: morningglory; experiment: Test B pre-/postemergence herbicide test; assay type: in vivo, Ipomoea coccinea; details: visual rating; for Morningglory plant response rating: postemergence, scale 0 (no effect) to 100 (complete control)
How it was run: (§2)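 Plants compared with untreated controls 13–15 days post-treatment and given a visual 0–100 injury score. Applications: preemergence to seeds; postemergence at 1- to 4-leaf (2–18 cm); paddy species flooded, 2-leaf stage. Vehicle non-phytotoxic, surfactant included.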

[3] = tested on: pigweed; experiment: Test B pre-/postemergence herbicide test; assay type: in vivo, Amaranthus retroflexus; details: for Pigweed plant response rating: postemergence, scale 0 (no effect) to 100 (complete control)
How it was run: as §1

[4] = tested on: corn; experiment: Test B pre-/postemergence herbicide test; assay type: in vivo, Zea mays; details: for Corn plant response rating: postemergence, scale 0 (no effect) to 100 (complete control)
How it was run: as §1

[5] = tested on: barnyardgrass; experiment: Test B pre-/postemergence herbicide test; assay type: in vivo, Echinochloa crus-galli; details: for Barnyardgrass plant response rating: postemergence, scale 0 (no effect) to 100 (complete control)
How it was run: as §2

[6] = tested on: small flower umbrella sedge; experiment: Test B flooded paddy test; assay type: in vivo, Cyperus difformis; details: 1000 g ai/ha, visual rating, scale 0 to 100 (0 no effect, 100 complete control), 13 to 15 days
How it was run: (§3)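 Formulated test chemicals went onto postemergence plants measuring 2 to 18 cm, at one to four leaves. For the paddy assay, species had reached two leaves. Scoring took place 13–15 days later by eye, relative to untreated plants, using 0 for no effect up to 100 for full control.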

[7] = tested on: barnyardgrass; experiment: Test B flooded paddy test; assay type: in vivo, Echinochloa crus-galli; details: 1000 g ai/ha, visual rating, scale 0 to 100 (0 no effect, 100 complete control), 13 to 15 days
How it was run: as §3

[8] = tested on: rice; experiment: Test B flooded paddy test; assay type: in vivo, Oryza sativa; details: 1000 g ai/ha, visual rating, scale 0 to 100 (0 no effect, 100 complete control), 13 to 15 days
How it was run: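 Greenhouse test; postemergence application to plants at 1–4 leaves (2–18 cm); paddy species at 2 leaves; evaluated visually vs controls at 13–15 days; scale 0–100 (100 = complete control).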

[9] = tested on: wheat; experiment: Test B postemergence herbicide test; assay type: in vivo, Triticum aestivum; parameters: key to Wheat plant response rating: 0 = no effect, 100 = complete control; details: postemergence, visual rating, scale 0 (no effect) to 100 (complete control)
How it was run: (§4)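 Visual ratings, 0 (no effect) to 100 (complete control), made versus controls after 13–15 d greenhouse. Paddy plants treated at 2-leaf stage; postemergence plants at 1- to 4-leaf stage, 2–18 cm tall.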

[10] = tested on: velvetleaf; experiment: Test B pre-/postemergence herbicide test; assay type: in vivo, Abutilon theophrasti; details: for Velvetleaf plant response rating: postemergence, scale 0 (no effect) to 100 (complete control)
How it was run: as §1

[11] = tested on: rice; experiment: Test B pre-/postemergence herbicide test; assay type: in vivo, Oryza sativa; details: 0 = no effect, 100 = complete control, preemergence
How it was run: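 Species tested were Echinochloa crus-galli, Ipomoea coccinea, Xanthium strumarium and Oryza sativa, treated both before emergence and at the 1- to 4-leaf stage; rice and barnyardgrass were also tested under flooding at 2 leaves. Greenhouse incubation lasted 13–15 days before visual 0–100 scoring.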

[12] = tested on: wild oat; experiment: Test B postemergence herbicide test; assay type: in vivo, Avena fatua; details: postemergence, visual rating, scale 0 (no effect) to 100 (complete control)
How it was run: as §4

[13] = tested on: blackgrass; experiment: Test B postemergence herbicide test; assay type: in vivo, Alopecurus myosuroides; details: postemergence, visual rating, scale 0 (no effect) to 100 (complete control)
How it was run: as §3

[14] = tested on: ducksalad; experiment: Test B flooded paddy test; assay type: in vivo, Heteranthera limosa; details: 1000 g ai/ha, visual rating, scale 0 to 100 (0 no effect, 100 complete control), 13 to 15 days
How it was run: as §3

[15] = tested on: lambsquarters; experiment: Test B pre-/postemergence herbicide test; assay type: in vivo, Chenopodium album; details: for Lambsquarters plant response rating: postemergence, scale 0 (no effect) to 100 (complete control)
How it was run: as §1

[16] = tested on: giant foxtail; experiment: Test B pre-/postemergence herbicide test; assay type: in vivo, Setaria faberi; details: for Foxtail, Giant plant response rating: postemergence, scale 0 (no effect) to 100 (complete control)
How it was run: as §1

[17] = tested on: cocklebur; experiment: Test B pre-/postemergence herbicide test; assay type: in vivo, Xanthium strumarium; details: for Cocklebur plant response rating: postemergence, scale 0 (no effect) to 100 (complete control)
How it was run: as §2

[18] = tested on: Surinam grass; experiment: Test B pre-/postemergence herbicide test; assay type: in vivo, Urochloa decumbens; details: for Surinam Grass plant response rating: postemergence, scale 0 (no effect) to 100 (complete control)
How it was run: as §1

[19] = 125 g ai/ha, 0 = no effect, 100 = complete control, preemergence
[20] = 500 g ai/ha, visual rating, 0 = no effect, 100 = complete control, preemergence

SMILES: CCc1nn(C(C)(C)C)cc1C(=O)Nc1cc(C(=O)N(C)CC)ccc1F [Compound 224]
- Crabgrass, Large plant response rating (0 to 100 scale) [1, 19]: 30
- Plant response rating, Crabgrass, Large [1, 20]: 100
- Crabgrass, Large plant response rating ([1]; 125 g ai/ha, visual rating): 10
- Crabgrass, Large plant response rating ([1]; 500 g ai/ha, visual rating): 20
- Plant response rating, Morningglory ([2]; 500 g ai/ha, 0 = no effect, 100 = complete control, preemergence): 30
- Morningglory plant response rating ([2]; 125 g ai/ha): 30
- Morningglory plant response rating ([2]; 500 g ai/ha): 70
- Pigweed plant response rating (0 to 100 scale) [3, 19]: 80
- Plant response rating, Pigweed [3, 20]: 100
- Pigweed plant response rating ([3]; 125 g ai/ha, visual rating): 40
- Pigweed plant response rating ([3]; 500 g ai/ha, visual rating): 60
- Corn plant response rating (0 to 100 scale) [4, 19]: 20
- Plant response rating, Corn [4, 20]: 70
- Corn plant response rating ([4]; 125 g ai/ha, visual rating): 10
- Corn plant response rating ([4]; 500 g ai/ha, visual rating): 20
- Barnyardgrass plant response rating (0 to 100 scale) [5, 19]: 30
- Plant response rating, Barnyardgrass [5, 20]: 90
- Barnyardgrass plant response rating ([5]; 125 g ai/ha, visual rating): 10
- Barnyardgrass plant response rating ([5]; 500 g ai/ha, visual rating): 30
- Sedge, Umbrella plant response rating [6]: 80
- Barnyardgrass plant response rating [7]: 90
- Rice plant response rating [8]: 90
- Wheat plant response rating ([9]; 125 g ai/ha): 0
- Wheat plant response rating ([9]; 500 g ai/ha): 30
- Velvetleaf plant response rating (0 to 100 scale) [10, 19]: 70
- Plant response rating, Velvetleaf [10, 20]: 100
- Velvetleaf plant response rating ([10]; 125 g ai/ha, visual rating): 20
- Velvetleaf plant response rating ([10]; 500 g ai/ha, visual rating): 60
- Rice plant response rating (0 to 100 scale) ([11]; 125 g ai/ha): 30
- Plant response rating, Rice ([11]; 500 g ai/ha, visual rating): 80
- Oat, Wild plant response rating ([12]; 125 g ai/ha): 0
- Oat, Wild plant response rating ([12]; 500 g ai/ha): 30
- Blackgrass plant response rating ([13]; 125 g ai/ha): 0
- Blackgrass plant response rating ([13]; 500 g ai/ha): 10
- Ducksalad plant response rating [14]: 80
- Lambsquarters plant response rating (0 to 100 scale) [15, 19]: 100
- Plant response rating, Lambsquarters [15, 20]: 100
- Lambsquarters plant response rating ([15]; 125 g ai/ha, visual rating): 60
- Lambsquarters plant response rating ([15]; 500 g ai/ha, visual rating): 70
- Foxtail, Giant plant response rating (0 to 100 scale) [16, 19]: 10
- Plant response rating, Foxtail, Giant [16, 20]: 70
- Foxtail, Giant plant response rating ([16]; 125 g ai/ha, visual rating): 20
- Foxtail, Giant plant response rating ([16]; 500 g ai/ha, visual rating): 30
- Cocklebur plant response rating (0 to 100 scale) [17, 19]: 20
- Plant response rating, Cocklebur [17, 20]: 50
- Cocklebur plant response rating ([17]; 125 g ai/ha, visual rating): 10
- Cocklebur plant response rating ([17]; 500 g ai/ha, visual rating): 40
- Surinam Grass plant response rating (0 to 100 scale) [18, 19]: 60
- Plant response rating, Surinam Grass [18, 20]: 100
- Surinam Grass plant response rating ([18]; 125 g ai/ha, visual rating): 10
- Surinam Grass plant response rating ([18]; 500 g ai/ha, visual rating): 20
